According to PMC8402619 (Viruses, 2021):

Legend:
[1] = system: CYP2B6; test: CYP induction in cryopreserved human hepatocytes; conditions: positive control, 1000 µM, 48 h, n = 3 donors
[2] = system: CYP1A2; test: CYP induction in cryopreserved human hepatocytes; conditions: positive control, 50 µM, 48 h, n = 3 donors
[3] = target: T1, BCRP (Homo sapiens, UniProt Q9UNQ0); test: Bidirectional transport across MDCKII and MDCKII-BCRP cell monolayers; format: in vitro ADME; design: expressed in transfected cells; host or cells: MDCKII; conditions: positive control substrate 1 µM, mean ± SEM
T1 sequence (Q9UNQ0 1-655): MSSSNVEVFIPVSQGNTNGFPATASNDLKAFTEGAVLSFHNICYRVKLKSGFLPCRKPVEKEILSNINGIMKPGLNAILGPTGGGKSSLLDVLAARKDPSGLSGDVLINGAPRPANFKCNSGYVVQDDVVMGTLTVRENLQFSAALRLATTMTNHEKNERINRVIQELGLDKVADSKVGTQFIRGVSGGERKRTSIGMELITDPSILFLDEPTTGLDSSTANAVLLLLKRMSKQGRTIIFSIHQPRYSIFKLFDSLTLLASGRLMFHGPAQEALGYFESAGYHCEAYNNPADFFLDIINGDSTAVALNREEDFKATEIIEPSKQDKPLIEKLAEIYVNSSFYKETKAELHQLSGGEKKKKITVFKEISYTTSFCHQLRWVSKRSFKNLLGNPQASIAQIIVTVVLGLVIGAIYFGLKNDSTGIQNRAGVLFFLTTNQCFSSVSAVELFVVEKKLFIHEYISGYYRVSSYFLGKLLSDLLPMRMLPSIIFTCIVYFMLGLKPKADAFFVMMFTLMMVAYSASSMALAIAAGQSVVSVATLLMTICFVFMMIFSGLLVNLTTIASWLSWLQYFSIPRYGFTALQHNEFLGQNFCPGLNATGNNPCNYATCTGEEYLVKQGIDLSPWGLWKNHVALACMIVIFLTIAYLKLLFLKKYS

Compound: CCC1(c2ccccc2)C(=O)NC(=O)NC1=O [Phenobarbitol, reference compound]
- mRNA Mean Fold Change ± SD CYP2B6 [1]: 18.5 ± 1.9

Compound: COc1ccc2[nH]c([S+]([O-])Cc3ncc(C)c(OC)c3C)nc2c1 (stereo not shown) [Omeprazole, reference compound]
- mRNA Mean Fold Change ± SD CYP1A2 [2]: 26.4 ± 8.6

Compound: COc1cc2nc(N3CCN(C(=O)c4ccco4)CC3)nc(N)c2cc1OC [prazosin, reference compound]
- efflux ratio ([3]; dog, MDCK, untransfected control cells): 1 ± 0.09
- efflux ratio ([3]; human, BCRP-transfected monolayers): 14.9 ± 4.9
